Experimental data taken from EP1073435B1, “SUBSTITUTED TRICYCLIC PYRAZOLE DERIVATIVES WITH PROTEIN KINASE ACTIVITY” (Abbott GmbH & Co. KG, priority 1998, dated 1999).

Experiments:
Format in all cases: biochemical
KDR tyrosine kinase = target: T1, KDR tyrosine kinase (Homo sapiens, UniProt P35968); assay: KDR in vitro ELISA; details: ELISA assay, ATP 5µM
T1 construct: poly-His6 (N); made in house; host or cells: SF-9 insect cells (baculovirus, pVL1393)
Source text: The coding sequence for the KDR intra-cellular domain (aa789-1354) was generated through PCR using cDNAs isolated from HUVEC cells. A poly-His6 sequence was introduced at the N-terminus of this protein as well. This fragment was cloned into transfection vector pVL1393 at the Xba 1 and Not 1 site. Recombinant baculovirus (BV) was generated through co-transfection using the BaculoGold Transfection reagent (PharMingen). Recombinant BV was plaque purified and verified through Western analysis. For protein production, SF-9 cells were grown in SF-900-II medium at 2 x 10^6/ml, and were infected at 0.5 plaque forming units per cell (MOI). Cells were harvested at 48 hours post infection.
SF-9 cells expressing (His)6KDR(aa789-1354) were lysed by adding 50 ml of Triton X-100 lysis buffer (20 mM Tris, pH 8.0, 137 mM NaCl, 10% glycerol, 1% Triton X-100, 1mM PMSF, 10µg/ml aprotinin, 1 µg/ml leupeptin) to the cell pellet from 1L of cell culture. The lysate was centrifuged at 19,000 rpm in a Sorval SS-34 rotor for 30 min at 4°C. The cell lysate was applied to a 5 ml NiCl2 chelating sepharose column, equilibrated with 50 mM HEPES, pH7.5, 0.3 M NaCl. KDR was eluted using the same buffer containing 0.25 M imidazole. Column fractions were analyzed using SDS-PAGE and an ELISA assay (below) which measures kinase activity. […]

Lck = Lck (Homo sapiens, UniProt P06239); assay: ELISA tyrosine kinase assay, Lck
Procedure: Lck or truncated forms of Lck may be commercially obtained ( e.g. from Upstate Biotechnology Inc. (Saranac Lake, N.Y) and Santa Cruz Biotechnology Inc. (Santa Cruz, Ca.)) or purified from known natural or recombinant sources using conventional methods.
• 1. Plate Preparation: Dilute PGT stock (50mg/ml, frozen) in PBS to a 250µg/ml. Add 125µl per well of Coming modified flat bottom high affinity ELISA plates (Corning #25805-96). Add 125µl PBS to blank wells. Cover with sealing tape and incubate overnight 37°C. Wash 1x with 250µl washing buffer and dry for about 2hrs in 37°C dry incubator. Store coated plates in sealed bag at 4°C until used. • 2. Tyrosine Kinase Reaction: • Prepare inhibitor solutions at a 4x concentration in 20% DMSO in water. • Prepare reaction buffer • Prepare enzyme solution so that desired units are in 50µl, e.g. for KDR make to 1 ng/µl for a total of 50ng per well in the reactions. Store on ice. • Make 4x ATP solution to 20µM from 100mM stock in water. Store on ice • Add 50µl of the enzyme solution per well • Add 25µl 4x inhibitor • Add 25µl 4x ATP for inhibitor assay • Incubate for 10 minutes at room temperature • Stop reaction by adding 50µl 0.05N HCl per well • Wash plate **Final Concentrations for Reaction: • ATP: 5µM • 5% DMSO • 3. […] Shake on plate reader. • Read OD immediately at 450nm […]

zapfl = target: T2, zapfl (Homo sapiens, UniProt P43403); assay: ELISA tyrosine kinase assay, zapfl (ZAP70)
T2 construct: the region encoding the entirety of ZAP70 (amino acids 1-619); made in house; host or cells: SF-9 insect cells (baculovirus, pVL1393)
T2 sequence (P43403 1-619): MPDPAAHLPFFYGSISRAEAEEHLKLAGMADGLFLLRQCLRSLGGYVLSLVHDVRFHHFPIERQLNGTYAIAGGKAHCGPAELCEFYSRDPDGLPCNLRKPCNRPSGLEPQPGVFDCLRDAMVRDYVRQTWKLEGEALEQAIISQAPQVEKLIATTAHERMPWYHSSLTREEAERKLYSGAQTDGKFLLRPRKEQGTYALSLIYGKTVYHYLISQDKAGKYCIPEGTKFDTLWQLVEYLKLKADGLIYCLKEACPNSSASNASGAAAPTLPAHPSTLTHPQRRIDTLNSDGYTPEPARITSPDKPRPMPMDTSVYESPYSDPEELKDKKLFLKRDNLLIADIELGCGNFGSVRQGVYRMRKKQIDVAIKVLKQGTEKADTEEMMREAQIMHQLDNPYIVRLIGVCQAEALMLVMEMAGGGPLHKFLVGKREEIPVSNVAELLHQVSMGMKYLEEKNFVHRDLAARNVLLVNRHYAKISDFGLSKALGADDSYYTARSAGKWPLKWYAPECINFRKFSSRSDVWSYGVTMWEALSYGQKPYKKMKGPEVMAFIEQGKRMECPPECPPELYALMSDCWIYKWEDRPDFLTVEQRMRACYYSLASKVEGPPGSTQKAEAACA
Source text: The baculoviral expression vector used was pVL1393. (Pharmingen, Los Angeles, Ca.) The nucleotide sequence encoding amino acids M(H)6 LVPR9S was placed 5' to the region encoding the entirety of ZAP70 (amino acids 1-619). The nucleotide sequence encoding the ZAP70 coding region was generated through PCR using cDNA libraries isolated from Jurkat immortalized T-cells. The histidine residues enabled affinity purification of the protein (vide infra). The LVPR9S bridge constitutes a recognition sequence for proteolytic cleavage by thrombin, enabling removal of the affinity tag from the enzyme. SF-9 insect cells were infected at a multiplicity of infection of 0.5 and harvested 48 hours post infection.
SF-9 cells were lysed in a buffer consisting of 20 mM Tris, pH 8.0, 137 mM NaCl, 10% glycerol, 1% Triton X-100, 1 mM PMSF, 1 µg/ml leupeptin, 10 µg/ml aprotinin and I mM sodium orthovanadate. The soluble lysate was applied to a chelating sepharose HiTrap column (Pharmacia) equilibrated in 50 mM HEPES, pH 7.5, 0.3 M NaCl. Fusion protein was eluted with 250 mM imidazole. The enzyme was stored in buffer containing 50 mM HEPES, pH 7.5, 50 mM NaCl and 5 mM DTT.
The disclosed protocol can be adapted for determining activity with respect to a specific RTK. […]
• 1. […] Shake on plate reader. • Read OD immediately at 450nm

human Tie-2 = target: T3, human Tie-2 (Homo sapiens, UniProt Q02763); assay: ELISA tyrosine kinase assay, TIE2
T3 construct: human Tie-2 intra-cellular domain (aa775-1124) was generated through PCR; made in house; host or cells: SF-9 insect cells (baculovirus)
Source text: The coding sequence for the human Tie-2 intra-cellular domain (aa775-1124) was generated through PCR using cDNAs isolated from human placenta as a template. A poly-His6 sequence was introduced at the N-terminus and this construct was cloned into transfection vector […] at the Xba 1 and Not 1 site. Recombinant BV was generated through co-transfection using the BaculoGold Transfection reagent (PharMingen). Recombinant BV was plaque purified and verified through Western analysis. For protein production, SF-9 insect cells were grown in SF-900-II medium at 2 x 10^6/ml, and were infected at MOI of 0.5. Purification of the His-tagged kinase used in screening was analogous to that described for KDR.
The disclosed protocol can be adapted for determining activity with respect to a specific RTK. For example, preferred protocols for conducting the ELISA experiments for KDR is provided below. Adaptation of these protocols for determining a compounds activity for other members of the RTK family, as well as non-receptor tyrosine kinases, are well within the abilities of those in the art.
• 1. Plate Preparation: Dilute PGT stock (50mg/ml, frozen) in PBS to a 250µg/ml. Add 125µl per well of Coming modified flat bottom high affinity ELISA plates (Corning #25805-96). Add 125µl PBS to blank wells. Cover with sealing tape and incubate overnight 37°C. […] Shake on plate reader. • Read OD immediately at 450nm

T1 sequence (P35968 789-1354): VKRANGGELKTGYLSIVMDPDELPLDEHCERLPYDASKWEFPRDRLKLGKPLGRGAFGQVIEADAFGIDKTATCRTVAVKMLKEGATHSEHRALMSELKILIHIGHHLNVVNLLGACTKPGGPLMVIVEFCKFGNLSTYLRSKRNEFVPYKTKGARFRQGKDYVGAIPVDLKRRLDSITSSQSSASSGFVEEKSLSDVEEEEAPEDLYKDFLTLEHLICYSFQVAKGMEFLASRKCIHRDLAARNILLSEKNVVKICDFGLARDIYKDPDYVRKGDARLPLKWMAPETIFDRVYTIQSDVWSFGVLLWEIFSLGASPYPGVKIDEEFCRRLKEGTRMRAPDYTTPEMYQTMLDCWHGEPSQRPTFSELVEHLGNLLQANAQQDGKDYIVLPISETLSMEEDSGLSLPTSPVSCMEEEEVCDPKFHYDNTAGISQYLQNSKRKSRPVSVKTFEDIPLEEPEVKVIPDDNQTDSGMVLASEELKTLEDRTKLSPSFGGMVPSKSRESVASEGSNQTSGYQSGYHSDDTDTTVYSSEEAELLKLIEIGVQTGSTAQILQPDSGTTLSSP
T3 sequence (Q02763 775-1124): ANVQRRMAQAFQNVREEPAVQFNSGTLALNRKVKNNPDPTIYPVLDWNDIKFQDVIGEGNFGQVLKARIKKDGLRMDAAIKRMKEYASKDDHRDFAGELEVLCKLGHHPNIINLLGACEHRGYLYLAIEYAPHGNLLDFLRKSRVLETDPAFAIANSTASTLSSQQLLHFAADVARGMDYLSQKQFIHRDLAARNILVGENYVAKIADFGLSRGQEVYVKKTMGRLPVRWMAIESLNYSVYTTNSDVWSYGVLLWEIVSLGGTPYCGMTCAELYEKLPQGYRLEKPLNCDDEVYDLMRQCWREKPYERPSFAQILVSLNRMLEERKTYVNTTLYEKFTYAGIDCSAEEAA
Sequence of Lck (P06239 whole entry, species assumed, the tested form may be a part): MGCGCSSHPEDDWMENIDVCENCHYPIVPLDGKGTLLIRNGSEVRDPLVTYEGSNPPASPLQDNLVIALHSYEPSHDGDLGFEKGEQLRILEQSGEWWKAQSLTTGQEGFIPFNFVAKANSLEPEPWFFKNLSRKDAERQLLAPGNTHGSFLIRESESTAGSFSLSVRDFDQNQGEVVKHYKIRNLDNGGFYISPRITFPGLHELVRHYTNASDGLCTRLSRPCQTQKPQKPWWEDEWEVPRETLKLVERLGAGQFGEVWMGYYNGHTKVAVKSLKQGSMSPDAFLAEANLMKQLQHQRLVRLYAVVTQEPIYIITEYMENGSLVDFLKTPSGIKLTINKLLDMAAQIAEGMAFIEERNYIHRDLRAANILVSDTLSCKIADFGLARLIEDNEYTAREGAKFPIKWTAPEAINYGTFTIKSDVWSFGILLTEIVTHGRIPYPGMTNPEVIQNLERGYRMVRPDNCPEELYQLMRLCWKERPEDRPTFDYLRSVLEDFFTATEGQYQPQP

IC50 (KDR tyrosine kinase): 13.4 µM
IC50 (Lck): > 30 µM
IC50 (zapfl): 30.3 µM
IC50 (human Tie-2): > 30 µM
Structure (SMILES): c1ccc2c(c1)SCc1c(-c3ccncc3)n[nH]c1-2 [Compound III]
